Reference: patent US10201158B2, “Plant disease control composition and method for controlling plant disease by application of same” (MITSUI CHEMICALS AGRO, INC., priority 2014, dated 2019)
Read-outs that look alike come from different tables or passages of the source.

Key:
Botrytis cinerea = details: in vivo
Sphaerotheca fuliginea = test: Cucumber powdery mildew preventive test; assay type: in vivo; details: in vivo
Protocol: In a greenhouse, cucumber (variety: Sagamihanshiro) planted in a plastic pot having a diameter of 5 cm was grown to the 3rd to 5th-leaf stage. Spray was carried out in the same manner as in Test example 1, and 3 days after the spray, a conidia suspension prepared from Sphaerotheca fuliginea were inoculated on the leaf surface. After inoculation, the pots were placed in a thermostatic greenhouse (20 to 25° C.), and controlling effects were examined after 7 days from the inoculation. In the examination, a ratio of lesion area occupied per one leaf of cucumber was determined according to the same index as in Test example 1, and the control value and the theoretical value according to Colby's formula were similarly calculated.
Wettable powder prepared in compliance with Comparative Preparation Example 4 containing the compounds indicated in Table 7-9 were sprayed to the cucumber leaves, a conidiospore suspension prepared from Sphaerotheca fuliginea was inoculated onto the plants, and the controlling effects were examined in a manner similar to Test Example 6.

Pyricularia oryzae = assay type: in vivo; details: Table 3-4, group b ingredient alone
[1] = treatment concentration 10 + 10 ppm
[2] = treatment concentration 10 + 2 ppm

Row | Molecule | Preventive value (Botrytis cinerea) | Preventive value (Sphaerotheca fuliginea) | other results
1 | Fc1ccc([C@]2(Cn3cncn3)O[C@H]2c2ccccc2Cl)cc1 (racemic) [Epoxiconazole (b-24), Epoxiconazole] | 33 | 40 | –
2 | CCCCNC(=O)n1c(NC(=O)OC)nc2ccccc21 [Benomyl (b-58), Benomyl] | 60 | 50 | –
3 | Cn1cc(C(=O)Nc2ccc(F)cc2-c2ccc(Cl)c(Cl)c2)c(C(F)F)n1 [Bixafen (b-4), Bixafen] | 33 | – | Preventive value (Pyricularia oryzae; [1]): 33
4 | COC(=O)Nc1nc2ccccc2[nH]1 [Carbendazim (b-59), Carbendazim] | 40 | – | –
5 | CC1=C(C(=O)Nc2ccccc2)SCCO1 [Carboxin (b-41), Carboxin] | 17 | – | Control value (Sphaerotheca fuliginea): 40
6 | Cc1ccc2nc3sc(=O)sc3nc2c1 [Chinomethionat (b-74), Chinomethionat] | 17 | 50 | –
7 | Fc1ccc(C2(Cn3nc[nH]c3=S)OC2c2ccccc2Cl)c(F)c1 (stereo not drawn) [Compound of (V) (b-36)] | 40 | 33 | –
8 | OC(c1cccnc1)c1c(-c2ccc(Cl)cc2F)noc1-c1ccc(F)cc1F (stereo not drawn) [Compound of (XVIII) (b-92)] | 50 | 40 | –
9 | CON(C(=O)c1cn(C)nc1C(F)F)C(C)Cc1c(Cl)cc(Cl)cc1Cl (stereo not drawn) [Compound of formula (III) (b-8)] | 40 | 60 | –
10 | CC(C)c1ccc(Cl)cc1CN(C(=O)c1c(C(F)F)nn(C)c1F)C1CC1 [Compound of formula (IV) (b-9)] | 40 | 60 | –
11 | Cc1nn(C)c(Nc2c(F)cc(Cl)cc2F)c1-c1ccc(F)cc1Cl [Compound of formula (XV)-1 (b-89)] | 40 | 40 | –
12 | CCN(C)/C=N/c1cc(C)c(Oc2nc(Cc3ccc(Cl)cc3)ns2)cc1C [Compound of formula (XVII) (b-91)] | 40 | 40 | –
13 | CC(C1CC1)C(O)(Cn1cncn1)c1ccc(Cl)cc1 (stereo not drawn) [Cyproconazole (b-28), Cyproconazole] | 17 | 47 | –
14 | Cc1cc(C2CC2)nc(Nc2ccccc2)n1 [Cyprodinil (b-61), Cyprodinil] | 50 | – | Control value (Sphaerotheca fuliginea): 40
15 | CC1COC(Cn2cncn2)(c2ccc(Oc3ccc(Cl)cc3)cc2Cl)O1 (stereo not drawn) [Difenoconazole (b-29), Difenoconazole] | 33 | 40 | –
16 | CC(Cc1ccc(C(C)(C)C)cc1)CN1CCCCC1 (stereo not drawn) [Fenpropidin (b-102), Fenpropidin] | 17 | 40 | –
17 | CC(Cc1ccc(C(C)(C)C)cc1)CN1C[C@@H](C)O[C@@H](C)C1 (stereo partly drawn) [Fenpropimorph (b-65), Fenpropimorph] | 17 | 33 | –
18 | C=CCSC(=O)n1c(N)c(-c2ccccc2C)c(=O)n1C(C)C [Fenpyrazamine (b-99), Fenpyrazamine] | – | – | Control value (Sphaerotheca fuliginea): 33
19 | O=C(NCCc1ncc(C(F)(F)F)cc1Cl)c1ccccc1C(F)(F)F [Fluopyram (b-43), Fluopyram] | 40 | – | Preventive value (Pyricularia oryzae; [1]): 40
20 | O=c1c2cc(F)ccc2nc(-n2cncn2)n1-c1ccc(Cl)cc1Cl [Fluquinconazole (b-30), Fluquinconazole] | 33 | 47 | –

Row | Molecule | Preventive value (Botrytis cinerea) | Preventive value (Sphaerotheca fuliginea) | other results
21 | C[Si](Cn1cncn1)(c1ccc(F)cc1)c1ccc(F)cc1 [Flusilazole (b-31), Flusilazole] | 17 | 33 | –
22 | COc1ccccc1N1CCS/C1=C(/C#N)Sc1cc(C(F)(F)F)ccc1F [Flutianil (b-77), Flutianil] | 17 | 67 | –
23 | OC(Cn1cncn1)(c1ccc(F)cc1)c1ccccc1F (stereo not drawn) [Flutriafol (b-34), Flutriafol] | 33 | 40 | –
24 | O=C1c2ccccc2C(=O)N1SC(Cl)(Cl)Cl [Folpet (b-70), Folpet] | 73 | 33 | –
25 | C=CCOC(Cn1ccnc1)c1ccc(Cl)cc1Cl (stereo not drawn) [Imazalil (b-20), Imazalil] | 17 | 40 | –
26 | CC(C)C1CCC(Cc2ccc(Cl)cc2)C1(O)Cn1cncn1 (stereo not drawn) [Ipconazole (b-25), Ipconazole] | 40 | 50 | –
27 | CC(C)C1C2CCC1c1c(NC(=O)c3cn(C)nc3C(F)F)cccc12 (stereo not drawn) [Isopyrazam (b-7), Isopyrazam] | 40 | – | Control value (Sphaerotheca fuliginea): 40
28 | N#Cc1ccccc1NC(=O)c1snc(Cl)c1Cl [Isotianil (b-46), Isotianil] | – | – | Preventive value (Pyricularia oryzae; [1]): 50
29 | N#Cc1ccccc1NC(=O)c1snc(Cl)c1Cl [Isotianil(b-46)] | – | 33 | –
30 | CC1(C)CCC(Cc2ccc(Cl)cc2)C1(O)Cn1cncn1 (stereo not drawn) [Metconazole (b-26), Metconazole] | 40 | 50 | –
31 | CNC(=O)/C(=N/OC)c1ccccc1Oc1ccccc1 [Metominostrobin (b-54), Metominostrobin] | – | – | Preventive value (Pyricularia oryzae; [2]): 40
32 | COc1cc(C)c(C(=O)c2c(OC)ccc(Br)c2C)c(OC)c1OC [Metrafenone (b-82), Metrafenone] | 0 | 40 | –
33 | CCCCC(C#N)(Cn1cncn1)c1ccc(Cl)cc1 (stereo not drawn) [Myclobutanil (b-35), Myclobutanil] | 17 | 33 | –
34 | CCCC(Cn1cncn1)c1ccc(Cl)cc1Cl (stereo not drawn) [Penconazole (b-32), Penconazole] | 17 | – | –
35 | CCCC(Cn1cncn1)c1ccc(Cl)cc1Cl (stereo not drawn) [Penconazole(b-32)] | – | 47 | –
36 | Cc1nn(C)c(F)c1C(=O)Nc1ccccc1C(C)CC(C)C (stereo not drawn) [Penflufen (b-5), Penflufen] | 47 | – | Control value (Sphaerotheca fuliginea): 73
37 | OP(O)O [Phosphorous acid (b-105), Phosphorous acid] | 33 | 33 | –
38 | CO/C=C(/C(=O)OC)c1ccccc1COc1cccc(C(F)(F)F)n1 [Picoxystrobin (b-16), Picoxystrobin] | – | – | Preventive value (Pyricularia oryzae; [2]): 50
39 | CCCN(CCOc1c(Cl)cc(Cl)cc1Cl)C(=O)n1ccnc1 [Prochloraz (b-21), Prochloraz] | 17 | – | –
40 | CCCN(CCOc1c(Cl)cc(Cl)cc1Cl)C(=O)n1ccnc1 [Prochloraz(b-21)] | – | 50 | –

Row | Molecule | Preventive value (Botrytis cinerea) | Preventive value (Sphaerotheca fuliginea) | other results
41 | CCCC1COC(Cn2cncn2)(c2ccc(Cl)cc2Cl)O1 (stereo not drawn) [Propiconazole (b-27), Propiconazole] | 33 | 40 | –
42 | CCCOc1nc2ccc(I)cc2c(=O)n1CCC [Proquinazid (b-100), Proquinazid] | 17 | 40 | –
43 | OC(Cc1ccccc1Cl)(Cn1nc[nH]c1=S)C1(Cl)CC1 (stereo not drawn) [Prothioconazole (b-23), Prothioconazole] | 33 | – | Preventive value (Pyricularia oryzae; [1]): 33
44 | COC(=O)N(OC)c1ccccc1COc1ccn(-c2ccc(Cl)cc2)n1 [Pyraclostrobin (b-19), Pyraclostrobin] | – | – | Preventive value (Pyricularia oryzae; [2]): 40
45 | COC(=O)NCc1cc(/C(C)=N/OCc2cccc(C)n2)ccc1Cl [Pyribencarb (b-98), Pyribencarb] | 40 | – | –
46 | Cc1cc(C)nc(Nc2ccccc2)n1 [Pyrimethanil (b-62), Pyrimethanil] | 33 | – | Preventive value (Pyricularia oryzae; treatment concentration printed 10 + 50 ppm): 33
47 | COc1cc(C)c(C(=O)c2c(OC)ncc(Cl)c2C)c(OC)c1OC [Pyriofenone (b-83), Pyriofenone] | 33 | 40 | –
48 | CN1OC(c2ccc(Cl)cc2)CC1(C)c1cccnc1 (stereo not drawn) [Pyrisoxazole (b-103), Pyrisoxazole] | – | 33 | –
49 | Fc1ccc(Oc2ccnc3cc(Cl)cc(Cl)c23)cc1 [Quinoxyfen (b-63), Quinoxyfen] | 17 | 60 | –
50 | Cn1cc(C(=O)Nc2ccccc2C2CC2C2CC2)c(C(F)F)n1 (stereo not drawn) [Sedaxane (b-6), Sedaxane] | 50 | – | Control value (Sphaerotheca fuliginea): 40
51 | CCCN(CC)CC1COC2(CCC(C(C)(C)C)CC2)O1 (stereo not drawn) [Spiroxamine (b-101), Spiroxamine] | 17 | 33 | –
52 | S1SSSSSSS1 [Sulfur (b-96), Sulfur] | 0 | 73 | –
53 | FC(F)C(F)(F)OCC(Cn1cncn1)c1ccc(Cl)cc1Cl (stereo not drawn) [Tetraconazole (b-22), Tetraconazole] | 40 | 50 | –
54 | c1ccc2[nH]c(-c3cscn3)nc2c1 [Thiabendazole (b-60), Thiabendazole] | 57 | 40 | –
55 | Cc1nc(C(F)(F)F)c(C(=O)Nc2c(Br)cc(OC(F)(F)F)cc2Br)s1 [Thifluzamide (b-42), Thifluzamide] | 23 | – | Control value (Sphaerotheca fuliginea): 73
56 | CN(C)C(=S)SSC(=S)N(C)C [Thiuram (b-68), Thiuram] | – | 33 | –
57 | CC(C)(C)C(O)C(Oc1ccc(Cl)cc1)n1cncn1 (stereo not drawn) [Triadimenol (b-33), Triadimenol] | 17 | – | Preventive value (Pyricularia oryzae; treatment concentration printed 10 + 250 ppm): 33
58 | CCCCCCCCCCCCCN1CC(C)OC(C)C1 (stereo not drawn) [Tridemorph (b-66), Tridemorph] | 17 | 33 | –
59 | Metiram [Metiram (b-67)] | – | 33 | –
60 | Propineb [Propineb (b-69)] | 33 | 17 | –
